Data taken from ChEMBL document CHEMBL1132007, “The synthesis and biological evaluation of non-peptidic matrix metalloproteinase inhibitors” (Bioorg Med Chem Lett, 1999).

Tests used:
[1] = target: T1, Interstitial collagenase (Homo sapiens, UniProt P03956)
T1 sequence (P03956 whole entry): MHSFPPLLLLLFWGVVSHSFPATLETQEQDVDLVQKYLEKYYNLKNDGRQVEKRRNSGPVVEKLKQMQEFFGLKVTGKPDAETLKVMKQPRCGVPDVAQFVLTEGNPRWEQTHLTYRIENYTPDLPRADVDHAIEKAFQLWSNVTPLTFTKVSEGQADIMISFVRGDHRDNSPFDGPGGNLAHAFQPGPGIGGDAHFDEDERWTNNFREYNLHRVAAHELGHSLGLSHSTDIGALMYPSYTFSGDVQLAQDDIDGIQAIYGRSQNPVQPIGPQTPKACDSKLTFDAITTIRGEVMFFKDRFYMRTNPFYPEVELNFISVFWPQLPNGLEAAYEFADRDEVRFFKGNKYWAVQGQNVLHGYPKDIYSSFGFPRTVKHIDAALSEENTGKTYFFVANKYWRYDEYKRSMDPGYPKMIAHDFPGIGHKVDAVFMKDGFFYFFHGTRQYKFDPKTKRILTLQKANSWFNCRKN

[2] = species on record: Rattus norvegicus; conditions: in vivo, po
[3] = in vivo; conditions: rat, po
[4] = target: Neutrophil collagenase (Homo sapiens, UniProt P22894)
[5] = target: Stromelysin-1 (Homo sapiens) (UniProt P08254)
Chain of Stromelysin-1 (Homo sapiens) (P08254 whole entry, looked up): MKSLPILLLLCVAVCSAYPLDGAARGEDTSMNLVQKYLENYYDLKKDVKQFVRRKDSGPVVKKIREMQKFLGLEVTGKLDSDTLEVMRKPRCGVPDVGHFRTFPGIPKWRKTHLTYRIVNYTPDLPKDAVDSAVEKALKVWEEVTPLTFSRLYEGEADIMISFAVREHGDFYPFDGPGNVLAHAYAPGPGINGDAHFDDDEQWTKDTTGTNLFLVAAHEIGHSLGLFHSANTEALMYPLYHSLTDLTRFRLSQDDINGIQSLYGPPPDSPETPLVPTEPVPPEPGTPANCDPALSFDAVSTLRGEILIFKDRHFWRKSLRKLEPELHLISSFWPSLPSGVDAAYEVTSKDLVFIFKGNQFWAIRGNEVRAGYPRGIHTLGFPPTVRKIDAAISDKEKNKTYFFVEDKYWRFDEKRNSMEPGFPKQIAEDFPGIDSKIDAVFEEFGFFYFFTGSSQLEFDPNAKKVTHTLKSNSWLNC

Chain of Neutrophil collagenase (P22894 whole entry): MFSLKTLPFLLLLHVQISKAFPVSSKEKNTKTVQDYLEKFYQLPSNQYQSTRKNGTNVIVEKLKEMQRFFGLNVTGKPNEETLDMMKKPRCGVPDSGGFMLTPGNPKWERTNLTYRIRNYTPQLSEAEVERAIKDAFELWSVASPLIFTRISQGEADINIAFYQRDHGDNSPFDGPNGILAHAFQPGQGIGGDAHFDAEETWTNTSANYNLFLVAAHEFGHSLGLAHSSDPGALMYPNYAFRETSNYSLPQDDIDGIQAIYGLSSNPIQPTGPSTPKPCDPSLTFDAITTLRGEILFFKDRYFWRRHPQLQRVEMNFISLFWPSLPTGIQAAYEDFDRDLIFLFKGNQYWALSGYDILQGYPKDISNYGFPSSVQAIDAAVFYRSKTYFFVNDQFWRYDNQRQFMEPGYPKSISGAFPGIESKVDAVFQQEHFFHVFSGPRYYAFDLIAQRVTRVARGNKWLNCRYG

IC50 [1] [nM]	also measured	Compound
10		COc1ccc(S(=O)(=O)N(C)C[C@H](C(=O)NO)[C@@H](CC2CCCC2)C(=O)N2CCOCC2)cc1
6		CN(C[C@H](C(=O)NO)[C@@H](CC1CCCC1)C(=O)N1CCCCC1)S(=O)(=O)c1cccc2ccccc12
10		CS(=O)(=O)N(C[C@H](C(=O)NO)[C@@H](CC1CCCC1)C(=O)N1CCCCC1)C1CC1
	AUC [2]: 662 ng·h/mL; Cmax at 0.5 h [3]: 172 ng/mL	CN(C[C@H](C(=O)NO)[C@@H](CC1CCCC1)C(=O)N1CCCCC1)S(C)(=O)=O
60		CC(C)C[C@@H](C(=O)N1CCCCC1)[C@H](CN(C)S(C)(=O)=O)C(=O)NO
20	IC50 [4]: 600 nM	CC(C)C[C@@H](C(=O)N1CCOCC1)[C@H](CN1C(=O)c2ccccc2C1=O)C(=O)NO
5		CN(C[C@H](C(=O)NO)[C@@H](CC1CCCC1)C(=O)N1CCOCC1)S(C)(=O)=O
800	IC50 [4]: 1000 nM; IC60 [5]: 100000 nM	CC(C)C[C@@H](C(=O)N1CCCCC1)[C@H](O)C(=O)NO
1000		CC(C)C[C@@H](C(=O)N(C)C)[C@H](CN(C)S(C)(=O)=O)C(=O)NO
9		CN(C[C@H](C(=O)NO)[C@@H](CC1CCCC1)C(=O)N1CCCCC1)S(=O)(=O)c1ccc(Cl)cc1
